According to ChEMBL document CHEMBL1141009, “Synthesis of BODIPY-labeled alkylphosphocholines with leishmanicidal activity, as fluorescent analogues of miltefosine” (2008):

tested on: Leishmania donovani; assay: Antileishmanial activity against Leishmania donovani promastigotes; type: functional; conditions: read-out: LD50 (the source's name)

Structure (SMILES)	LC50
CCCCCCCCCCCCCCCCOP(=O)([O-])OCC[N+](C)(C)C [MILTEFOSINE]	6.5 µM
CC1=CC(C)=[N+]2C1=Cc1c(C)c(CCCCCCCCCCCOP(=O)([O-])OCC[N+](C)(C)C)c(C)n1[B-]2(F)F	5.2 µM
CCC1=C(C)C2=Cc3c(C)c(CCCCCCCCCCCOP(=O)([O-])OCC[N+](C)(C)C)c(C)n3[B-](F)(F)[N+]2=C1C	4.3 µM
